Our source for the inhibition and IC50 values is ChEMBL document CHEMBL3603767, “Discovery of new acetylcholinesterase inhibitors with small core structures through shape-based virtual screening” (Bioorg Med Chem Lett, 2015).

In assay [1] the target is Cholinesterase (Equus caballus) (UniProt P81908). The experiment in a line: Inhibition of equine serum BChE at 10 uM pre-incubated for 5 mins before butyrylthiocholineiodide substrate addition by Ellman's method.
The target in another assay is Acetylcholinesterase (Electrophorus electricus, UniProt O42275).
A further assay deals with Cholinesterase (Equus caballus, UniProt P81908).
In assay [2] the target is Acetylcholinesterase (Electrophorus electricus) (UniProt O42275). Kind of assay: Inhibition of Electrophorus electricus AChE at 10 uM pre-incubated for 5 mins before acetylthiocholine iodide substrate addition by Ellman's method.
The target is the same in assay [3]. The experiment in a line: Mixed type inhibition of Electrophorus electricus AChE assessed as reduction in enzyme Vmax at 5 to 80 nM pre-incubated for 5 mins before acetylthiocholine iodide substrate addition by Lineweaver-Burk plot.
Assay [4] shares this target. Kind of assay: Mixed type inhibition of Electrophorus electricus AChE assessed as increase in enzyme Km at 5 to 80 nM pre-incubated for 5 mins before acetylthiocholine iodide substrate addition by Lineweaver-Burk plot.

pIC50: −log10 of the molar value. Calls of active or inactive are those of the source. The calls are words filed in the database; no cut-off is given here.

Cholinesterase (Equus caballus), sequence (P81908 whole entry): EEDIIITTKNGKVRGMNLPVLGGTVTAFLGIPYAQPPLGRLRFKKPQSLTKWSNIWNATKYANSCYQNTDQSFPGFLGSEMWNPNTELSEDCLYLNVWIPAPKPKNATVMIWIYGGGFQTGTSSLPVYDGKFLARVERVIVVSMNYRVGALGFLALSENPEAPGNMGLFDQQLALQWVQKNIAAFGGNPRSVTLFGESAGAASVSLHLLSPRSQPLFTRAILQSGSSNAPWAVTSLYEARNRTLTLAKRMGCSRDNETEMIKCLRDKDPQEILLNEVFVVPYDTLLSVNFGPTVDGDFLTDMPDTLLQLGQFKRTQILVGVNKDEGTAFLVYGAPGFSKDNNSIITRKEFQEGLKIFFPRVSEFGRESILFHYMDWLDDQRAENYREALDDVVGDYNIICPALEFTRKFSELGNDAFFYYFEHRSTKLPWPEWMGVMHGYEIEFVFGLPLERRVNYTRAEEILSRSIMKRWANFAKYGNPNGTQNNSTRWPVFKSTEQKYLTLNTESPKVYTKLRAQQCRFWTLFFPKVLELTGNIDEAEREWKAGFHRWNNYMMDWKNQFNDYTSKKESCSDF
Cholinesterase, sequence (P81908 whole entry): as above
Acetylcholinesterase (Electrophorus electricus), sequence (O42275 24-633 limits assumed): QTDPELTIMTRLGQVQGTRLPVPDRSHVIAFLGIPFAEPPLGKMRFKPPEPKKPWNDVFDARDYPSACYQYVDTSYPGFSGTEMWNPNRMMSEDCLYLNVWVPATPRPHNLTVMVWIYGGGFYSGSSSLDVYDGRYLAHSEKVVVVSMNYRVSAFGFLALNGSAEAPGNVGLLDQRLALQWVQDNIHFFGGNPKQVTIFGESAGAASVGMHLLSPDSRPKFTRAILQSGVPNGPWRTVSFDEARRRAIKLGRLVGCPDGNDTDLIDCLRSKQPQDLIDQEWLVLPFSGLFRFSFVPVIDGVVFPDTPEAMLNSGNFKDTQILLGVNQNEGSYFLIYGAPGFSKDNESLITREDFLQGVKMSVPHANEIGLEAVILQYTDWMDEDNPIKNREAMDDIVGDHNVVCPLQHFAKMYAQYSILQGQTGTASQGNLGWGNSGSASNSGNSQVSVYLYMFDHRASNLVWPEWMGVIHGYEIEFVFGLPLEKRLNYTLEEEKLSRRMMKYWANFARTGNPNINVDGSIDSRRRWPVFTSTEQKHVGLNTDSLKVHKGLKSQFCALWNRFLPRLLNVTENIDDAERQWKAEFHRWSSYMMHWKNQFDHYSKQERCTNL
Acetylcholinesterase, sequence (O42275 whole entry): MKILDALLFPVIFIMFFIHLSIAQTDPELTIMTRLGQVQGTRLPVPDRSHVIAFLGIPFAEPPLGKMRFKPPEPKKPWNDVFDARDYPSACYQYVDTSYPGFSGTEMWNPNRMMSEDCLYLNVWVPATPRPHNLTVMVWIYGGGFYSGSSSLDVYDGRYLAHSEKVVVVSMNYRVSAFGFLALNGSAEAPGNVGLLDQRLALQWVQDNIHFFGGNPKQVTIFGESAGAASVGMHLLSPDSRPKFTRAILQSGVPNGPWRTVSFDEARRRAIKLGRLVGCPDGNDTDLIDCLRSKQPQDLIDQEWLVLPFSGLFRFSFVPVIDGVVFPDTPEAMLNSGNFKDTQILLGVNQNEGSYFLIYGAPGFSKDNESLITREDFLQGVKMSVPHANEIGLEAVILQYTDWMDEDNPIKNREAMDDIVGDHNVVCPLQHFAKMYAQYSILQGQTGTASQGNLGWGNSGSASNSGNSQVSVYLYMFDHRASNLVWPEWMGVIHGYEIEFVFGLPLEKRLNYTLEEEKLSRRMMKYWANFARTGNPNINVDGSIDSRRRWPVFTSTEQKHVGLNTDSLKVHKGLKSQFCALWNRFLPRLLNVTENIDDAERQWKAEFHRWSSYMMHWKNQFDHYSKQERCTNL

Turning to `Nc1c2c(nc3c1CCC3)CCCC2` [IPIDACRINE], the figures for the inhibition in assay [1] and in assay [2] were 99% and 98.7%, respectively. The pIC50 was 6.77 on Acetylcholinesterase and 7.15 at Cholinesterase.

Turning to `Nc1c2c(nc3c1C1CCCCC1S3)CCCC2` (stereo not given), the inhibition in assay [1] is 98.8%; in assay [2] it was 95.6%. In addition, the values for the pIC50 on Acetylcholinesterase and on Cholinesterase were 7.52 and 6.48, respectively. The inhibition entry in assay [3] and in assay [4] was “Active” each time.

In the case of `O=c1c(Br)c[nH]c2cccnc12`, the inhibition in assay [1] stood at 24.2%; in assay [2], 28.3%.

In the case of `Oc1ccnc2ccccc12`, the figures for the inhibition in assay [1] and in assay [2] were 28.8% and 32.5%, respectively.

Consider `Nc1nc(N)c2c(Br)cccc2n1`, for which the inhibition in assay [1] is 82.5%; in assay [2], 76.9%.

Take `Oc1nc(S)nc2c1CCCN2`: the inhibition in assay [1] is 30.4%; in assay [2], 68.3%.

As for `Nc1c(N)c2ccccc2oc1=O`, the inhibition in assay [1] worked out at 27.9%; in assay [2], 8.33%.

On to `Cc1cccc2c(N)c3c(nc12)N(C)CC3`, for which the inhibition in assay [1] was found to be 90.8%; in assay [2], 89.7%. Also, the pIC50 is 5.94 against Acetylcholinesterase and 4.80 on Cholinesterase.

Take `CC1(C)CC(=O)c2c(nc3ccccc3c2N)C1`: the inhibition in assay [1] amounted to 85%; in assay [2], 92.8%. Besides, the pIC50 against Acetylcholinesterase was 5.14; on Cholinesterase, 4.44.

For the compound `Nc1c2c(nc3sccc13)CCCC2`, the values for the inhibition in assay [1] and in assay [2] were 98.2% and 99.8%, respectively. The pIC50 was 6.59 against Acetylcholinesterase and 6.96 against Cholinesterase.

Regarding `O=c1c2ccccc2nc2n1CCCS2`, the inhibition in assay [1] worked out at 45%; in assay [2], 59.2%.

With `CC(=O)c1oc2ccccc2c1N`, the inhibition in assay [1] came out at 49.2%; in assay [2], 13.3%.

With `N#CCSc1nc(N)c2c3c(sc2n1)CCCC3`, the inhibition was 65.4% in assay [1] and 34.2% in assay [2].

On to `Nc1nc(O)c2c(n1)CCC2`, for which the inhibition in assay [1] came to 45.8%; in assay [2] it was 45.6%.

Regarding `CN1CCNc2nc3ccccc3nc21`, the inhibition in assay [1] turned out to be 42.1%; in assay [2] it was 26.1%.

Take `Nc1c2c(nc3ccccc13)N(Cc1ccccc1)CC2`: the values for the inhibition in assay [1] and in assay [2] were 99.8% and 96.4%, respectively. For the same compound, the pIC50 on Acetylcholinesterase is 6.13; on Cholinesterase, 5.65.

As for `Nc1c2c(nc3c4c(nn13)CCC4)CCC2`, the figures for the inhibition in assay [1] and in assay [2] were 59.2% and 76.7%, respectively. Besides, the pIC50 against Acetylcholinesterase is 5.13; against Cholinesterase it was 4.22.

As to `CC(=O)c1c(C)nc2ccccc2c1N`, the inhibition in assay [1] was 99.7%; in assay [2], 96.9%. The pIC50 on Acetylcholinesterase was 6.49; at Cholinesterase, 6.34. In addition, the inhibition result in assay [3] and in assay [4] was “Active” each time.

On to `Nc1ccc2nc3n(c(=O)c2c1)CCC3`, for which the inhibition in assay [1] was determined as 31.7%; in assay [2] it was 59.2%.

Consider `Nc1nc(N)c2c(n1)CCC2`, for which the values for the inhibition in assay [1] and in assay [2] were 46.7% and 50.8%, respectively.

For the compound `CCCCN1CCc2c1nc1ccc(Br)cc1c2N`, the inhibition in assay [1] stood at 92.5%; in assay [2] it was 90.6%. The pIC50 at Acetylcholinesterase is 6.52; against Cholinesterase, 5.05.

As to `COc1ccc2nc(C(F)(F)F)c(C#N)c(N)c2c1`, the inhibition in assay [1] amounted to 35.4%; in assay [2], 85%. The pIC50 against Acetylcholinesterase is 6.16; against Cholinesterase, 4.51.

For `O=C1c2ccccc2NC2=NCCCN12`, the inhibition in assay [1] turned out to be 42.5%; in assay [2] it was 26.7%.
